# According to ChEMBL document CHEMBL5244269, “Improving metabolic stability and removing aldehyde oxidase liability in a 5-azaquinazoline series of IRAK4 inhibitors” (Bioorg Med Chem, 2020):
# Columns and labels:
# SUD4 [1] = test: Growth inhibition of human SU-DHL-4 cells at 3.3 uM incubated for 3 days (reference value: -1%); format: functional; settings: SU-DHL-4, 72 h, time 3 day, read-out: GI
# SUD4 [2] = test: Growth inhibition of human SU-DHL-4 cells at 0.33 uM incubated for 3 days (reference value: -1%); format: functional; settings: SU-DHL-4, 72 h, time 3 day, read-out: GI
# SUD4 [3] = test: Growth inhibition of human SU-DHL-4 cells at 1.7 uM incubated for 3 days (reference value: -1%); format: functional; settings: SU-DHL-4, 72 h, time 3 day, read-out: GI
# SUD4 [4] = test: Growth inhibition of human SU-DHL-4 cells at 0.17 uM incubated for 3 days (reference value: -1%); format: functional; settings: SU-DHL-4, 72 h, time 3 day, read-out: GI
# OCI-Ly10 [5] = test: Growth inhibition of human OCILY10 cells at 0.17 uM incubated for 3 days in presence of 0.003 uM acalabrutinib relative to control; format: functional; settings: OCI-Ly10, 72 h, time 3 day, read-out: GI
# OCI-Ly10 [6] = test: Growth inhibition of human OCILY10 cells at 1.7 uM incubated for 3 days in presence of 0.003 uM acalabrutinib relative to control; format: functional; settings: OCI-Ly10, 72 h, time 3 day, read-out: GI
# OCI-Ly10 [7] = test: Growth inhibition of human OCILY10 cells at 3.3 uM incubated for 3 days in presence of 0.017 uM acalabrutinib relative to control; format: functional; settings: OCI-Ly10, 72 h, time 3 day, read-out: GI
# SUD4 [8] = test: Growth inhibition of human SU-DHL-4 cells at 3.3 uM incubated for 3 days in presence of 0.003 uM acalabrutinib relative to control; format: functional; settings: SU-DHL-4, 72 h, time 3 day, read-out: GI
# SUD4 [9] = test: Growth inhibition of human SU-DHL-4 cells at 3.3 uM incubated for 3 days in presence of 0.17 uM acalabrutinib relative to control; format: functional; settings: SU-DHL-4, 72 h, time 3 day, read-out: GI
# SUD4 [10] = test: Growth inhibition of human SU-DHL-4 cells at 10 uM incubated for 3 days in presence of 0.017 uM acalabrutinib relative to control; format: functional; settings: SU-DHL-4, 72 h, time 3 day, read-out: GI
# SUD4 [11] = test: Growth inhibition of human SU-DHL-4 cells at 10 uM incubated for 3 days in presence of 0.033 uM acalabrutinib relative to control; format: functional; settings: SU-DHL-4, 72 h, time 3 day, read-out: GI
# SUD4 [12] = test: Growth inhibition of human SU-DHL-4 cells at 10 uM incubated for 3 days in presence of 0.17 uM acalabrutinib relative to control; format: functional; settings: SU-DHL-4, 72 h, time 3 day, read-out: GI
# SUD4 [13] = test: Growth inhibition of human SU-DHL-4 cells at 10 uM incubated for 3 days in presence of 0.33 uM acalabrutinib relative to control; format: functional; settings: SU-DHL-4, 72 h, time 3 day, read-out: GI
# [14] = target: T1, Interleukin-1 receptor-associated kinase 4 (Homo sapiens, UniProt Q9NWZ3); test: Inhibition of IRAK4 (unknown origin) in presence of ATP by enzymatic assay
# T1 sequence (Q9NWZ3 whole entry): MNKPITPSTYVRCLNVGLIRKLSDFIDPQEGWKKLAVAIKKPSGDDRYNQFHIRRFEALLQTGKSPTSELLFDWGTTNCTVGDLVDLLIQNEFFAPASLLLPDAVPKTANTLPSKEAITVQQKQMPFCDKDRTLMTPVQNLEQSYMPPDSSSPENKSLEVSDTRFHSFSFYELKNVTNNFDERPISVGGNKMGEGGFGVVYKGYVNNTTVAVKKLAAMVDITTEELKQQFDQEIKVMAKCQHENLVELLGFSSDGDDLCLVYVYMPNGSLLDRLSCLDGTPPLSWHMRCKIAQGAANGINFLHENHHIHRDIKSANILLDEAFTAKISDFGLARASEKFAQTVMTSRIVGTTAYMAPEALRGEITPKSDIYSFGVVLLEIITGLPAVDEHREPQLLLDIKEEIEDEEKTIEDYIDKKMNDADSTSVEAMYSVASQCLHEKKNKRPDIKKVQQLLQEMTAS
# [15] = target: T1, Interleukin-1 receptor-associated kinase 4; test: Inhibition of IRAK4 (unknown origin) phosphorylation by cell based assay
# [16] = Lipophilicity, LogD at pH 7.4 of the compound by shake flask method; format: physicochemical; settings: buffer
# [17] = Metabolic stability in human liver microsomes assessed as intrinsic clearance; format: ADME, Microsome; settings: read-out: CLH
# [18] = Metabolic stability in human hepatocytes assessed as intrinsic clearance measured per 10^6 cells; format: ADME, cell-based, Hepatocyte; settings: read-out: CLH
# [19] = Apparent permeability across apical to basolateral side in human Caco-2 cells measured for 360 mins by liquid scintillation counting based analysis; format: ADME, cell-based
# [20] = Aqueous solubility in pH 7.4 phosphate buffer; format: physicochemical
# [21] = target: Interleukin-1 receptor-associated kinase 1 (Homo sapiens, UniProt P51617); test: Inhibition of IRAK1 (unknown origin) in presence of 25 uM ATP
# [22] = target: Tyrosine-protein kinase BTK (Homo sapiens, UniProt Q06187); test: Inhibition of BTK (unknown origin) in presence of 25 uM ATP
# [23] = target: High affinity nerve growth factor receptor (Homo sapiens, UniProt P04629); test: Inhibition of TRKA (unknown origin) in presence of 400 uM ATP
# [24] = target: BDNF/NT-3 growth factors receptor (Homo sapiens, UniProt Q16620); test: Inhibition of TRKB (unknown origin) in presence of 25 uM ATP
# [25] = target: NT-3 growth factor receptor (Homo sapiens, UniProt Q16288); test: Inhibition of TRKC (unknown origin) in presence of 50 uM ATP
# OCI-Ly10 [26] = test: Growth inhibition of human OCILY10 cells at 0.33 uM incubated for 3 days (Rvb= -3%); format: functional; settings: OCI-Ly10, 72 h, time 3 day, read-out: GI
# OCI-Ly10 [27] = test: Growth inhibition of human OCILY10 cells at 1.7 uM incubated for 3 days (Rvb= -3%); format: functional; settings: OCI-Ly10, 72 h, time 3 day, read-out: GI
# OCI-Ly10 [28] = test: Growth inhibition of human OCILY10 cells at 3.3 uM incubated for 3 days (Rvb= -3%); format: functional; settings: OCI-Ly10, 72 h, time 3 day, read-out: GI
# OCI-Ly10 [29] = test: Growth inhibition of human OCILY10 cells at 10 uM incubated for 3 days (Rvb= -3%); format: functional; settings: OCI-Ly10, 72 h, time 3 day, read-out: GI
# Sequence of Tyrosine-protein kinase BTK (Q06187 whole entry): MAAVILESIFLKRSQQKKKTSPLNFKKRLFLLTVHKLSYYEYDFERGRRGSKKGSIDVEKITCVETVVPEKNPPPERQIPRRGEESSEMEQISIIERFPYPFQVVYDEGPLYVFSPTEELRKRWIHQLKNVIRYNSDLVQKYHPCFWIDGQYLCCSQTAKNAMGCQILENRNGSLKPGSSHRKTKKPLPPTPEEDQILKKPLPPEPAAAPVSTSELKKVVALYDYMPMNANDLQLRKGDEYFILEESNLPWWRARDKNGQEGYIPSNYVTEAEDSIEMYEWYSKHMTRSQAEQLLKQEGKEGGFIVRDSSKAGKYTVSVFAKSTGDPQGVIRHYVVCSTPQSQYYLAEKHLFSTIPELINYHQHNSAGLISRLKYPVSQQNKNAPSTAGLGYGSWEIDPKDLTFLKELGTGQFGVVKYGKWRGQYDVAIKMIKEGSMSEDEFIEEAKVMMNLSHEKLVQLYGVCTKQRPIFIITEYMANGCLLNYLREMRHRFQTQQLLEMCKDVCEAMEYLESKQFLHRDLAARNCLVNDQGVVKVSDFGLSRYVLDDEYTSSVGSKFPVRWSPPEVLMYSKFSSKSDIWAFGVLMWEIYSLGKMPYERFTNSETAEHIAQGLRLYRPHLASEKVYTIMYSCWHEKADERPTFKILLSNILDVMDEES
# Sequence of High affinity nerve growth factor receptor (P04629 whole entry): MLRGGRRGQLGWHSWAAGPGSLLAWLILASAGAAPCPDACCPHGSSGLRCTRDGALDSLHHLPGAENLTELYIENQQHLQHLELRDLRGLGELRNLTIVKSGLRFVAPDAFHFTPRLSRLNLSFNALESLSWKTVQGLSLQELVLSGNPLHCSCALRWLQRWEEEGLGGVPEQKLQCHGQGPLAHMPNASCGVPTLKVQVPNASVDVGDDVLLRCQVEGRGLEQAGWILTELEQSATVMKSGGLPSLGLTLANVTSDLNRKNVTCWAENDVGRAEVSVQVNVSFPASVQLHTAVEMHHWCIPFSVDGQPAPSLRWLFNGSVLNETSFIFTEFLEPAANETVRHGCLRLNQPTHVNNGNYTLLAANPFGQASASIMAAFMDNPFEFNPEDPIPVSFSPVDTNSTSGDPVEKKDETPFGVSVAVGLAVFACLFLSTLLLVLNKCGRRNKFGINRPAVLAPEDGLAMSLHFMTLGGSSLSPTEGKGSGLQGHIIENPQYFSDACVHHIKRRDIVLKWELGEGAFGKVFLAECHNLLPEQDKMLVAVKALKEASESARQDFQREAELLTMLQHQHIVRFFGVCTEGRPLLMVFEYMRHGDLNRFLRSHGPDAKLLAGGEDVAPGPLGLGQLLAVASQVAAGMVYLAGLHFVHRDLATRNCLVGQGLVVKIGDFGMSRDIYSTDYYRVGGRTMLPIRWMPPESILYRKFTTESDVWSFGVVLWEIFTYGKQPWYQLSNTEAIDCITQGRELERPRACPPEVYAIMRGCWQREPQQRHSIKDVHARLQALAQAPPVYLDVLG
# Sequence of BDNF/NT-3 growth factors receptor (Q16620 whole entry): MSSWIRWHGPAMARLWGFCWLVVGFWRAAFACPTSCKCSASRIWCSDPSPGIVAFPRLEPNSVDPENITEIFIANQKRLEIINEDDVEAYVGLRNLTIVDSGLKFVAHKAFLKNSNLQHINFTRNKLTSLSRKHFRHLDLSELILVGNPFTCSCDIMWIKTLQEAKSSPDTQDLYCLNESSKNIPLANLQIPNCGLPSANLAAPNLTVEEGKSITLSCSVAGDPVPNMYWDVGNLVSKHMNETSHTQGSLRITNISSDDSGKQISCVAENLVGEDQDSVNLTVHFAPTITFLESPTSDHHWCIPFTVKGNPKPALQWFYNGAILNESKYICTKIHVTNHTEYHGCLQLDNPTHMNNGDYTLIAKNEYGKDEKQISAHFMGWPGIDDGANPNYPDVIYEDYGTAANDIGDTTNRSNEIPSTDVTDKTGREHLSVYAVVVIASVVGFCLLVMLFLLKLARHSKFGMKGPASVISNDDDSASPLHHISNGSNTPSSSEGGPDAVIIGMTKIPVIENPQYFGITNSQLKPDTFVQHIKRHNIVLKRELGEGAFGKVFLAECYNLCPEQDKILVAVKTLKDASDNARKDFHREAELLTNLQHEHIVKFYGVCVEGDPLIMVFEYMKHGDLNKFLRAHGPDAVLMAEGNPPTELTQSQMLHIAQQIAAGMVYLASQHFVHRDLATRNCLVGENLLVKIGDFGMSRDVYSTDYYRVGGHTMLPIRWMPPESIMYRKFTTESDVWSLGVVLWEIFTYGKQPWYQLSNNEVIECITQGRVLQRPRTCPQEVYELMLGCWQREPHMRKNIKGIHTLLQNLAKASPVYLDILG
# Sequence of NT-3 growth factor receptor (Q16288 whole entry): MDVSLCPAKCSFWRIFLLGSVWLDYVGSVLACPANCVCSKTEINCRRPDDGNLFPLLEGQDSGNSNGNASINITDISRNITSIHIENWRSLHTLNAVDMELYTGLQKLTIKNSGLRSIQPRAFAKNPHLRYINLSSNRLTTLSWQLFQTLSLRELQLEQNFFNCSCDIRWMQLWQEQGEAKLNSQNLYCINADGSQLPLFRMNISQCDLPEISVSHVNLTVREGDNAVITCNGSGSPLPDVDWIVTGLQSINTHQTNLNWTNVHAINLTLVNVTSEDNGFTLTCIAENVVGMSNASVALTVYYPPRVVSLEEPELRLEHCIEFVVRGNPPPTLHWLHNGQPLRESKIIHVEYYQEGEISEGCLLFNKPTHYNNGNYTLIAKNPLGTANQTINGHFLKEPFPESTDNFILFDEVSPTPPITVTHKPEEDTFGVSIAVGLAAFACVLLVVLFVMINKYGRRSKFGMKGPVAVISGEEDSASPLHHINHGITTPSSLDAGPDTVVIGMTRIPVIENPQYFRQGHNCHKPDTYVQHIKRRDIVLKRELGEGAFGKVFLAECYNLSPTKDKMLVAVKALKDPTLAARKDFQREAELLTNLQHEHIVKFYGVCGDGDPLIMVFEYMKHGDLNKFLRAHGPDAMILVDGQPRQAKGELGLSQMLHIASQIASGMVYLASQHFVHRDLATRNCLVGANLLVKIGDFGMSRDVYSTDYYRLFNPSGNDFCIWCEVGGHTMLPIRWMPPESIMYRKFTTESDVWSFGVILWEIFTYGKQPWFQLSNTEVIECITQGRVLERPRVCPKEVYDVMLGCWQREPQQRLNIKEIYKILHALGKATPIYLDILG
# Sequence of Interleukin-1 receptor-associated kinase 1 (P51617 whole entry): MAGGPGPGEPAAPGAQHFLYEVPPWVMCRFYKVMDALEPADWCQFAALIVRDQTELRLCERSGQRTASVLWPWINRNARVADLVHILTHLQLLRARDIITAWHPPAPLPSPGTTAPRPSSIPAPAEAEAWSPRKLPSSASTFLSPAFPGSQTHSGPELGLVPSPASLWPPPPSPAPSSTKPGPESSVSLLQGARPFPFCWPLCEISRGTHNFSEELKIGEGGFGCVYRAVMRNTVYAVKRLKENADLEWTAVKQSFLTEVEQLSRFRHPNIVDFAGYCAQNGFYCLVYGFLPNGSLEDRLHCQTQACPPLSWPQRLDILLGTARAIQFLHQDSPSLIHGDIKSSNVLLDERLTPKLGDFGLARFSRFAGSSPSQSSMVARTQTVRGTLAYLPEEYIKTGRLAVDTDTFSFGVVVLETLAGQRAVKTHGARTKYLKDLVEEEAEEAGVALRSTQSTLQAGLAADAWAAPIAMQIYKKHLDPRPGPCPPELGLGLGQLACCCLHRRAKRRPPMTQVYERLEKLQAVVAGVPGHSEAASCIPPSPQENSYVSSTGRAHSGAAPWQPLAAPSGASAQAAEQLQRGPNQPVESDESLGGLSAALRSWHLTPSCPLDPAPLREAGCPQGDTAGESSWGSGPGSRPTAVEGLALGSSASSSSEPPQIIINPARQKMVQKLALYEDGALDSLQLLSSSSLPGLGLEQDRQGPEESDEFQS
smiles,measurement,setting,value
CC[C@@H]1[C@H](F)C(=O)N[C@@H]1COc1nccc2cc(C(N)=O)c(OC)cc12 [ZIMLOVISERTIB],inhibition of growth at 3.3 µM,SUD4 [1],1%
same,inhibition of growth at 0.33 µM,SUD4 [2],1%
same,inhibition of growth at 1.7 µM,SUD4 [3],1%
same,inhibition of growth at 0.17 µM,SUD4 [4],1%
same,inhibition of growth at 0.17 µM,OCI-Ly10 [5],22%
same,inhibition of growth at 1.7 µM,OCI-Ly10 [6],26%
same,inhibition of growth at 3.3 µM,OCI-Ly10 [7],95%
same,inhibition of growth at 3.3 µM,SUD4 [8],2%
same,inhibition of growth at 3.3 µM,SUD4 [9],3%
same,inhibition of growth at 10 µM,SUD4 [10],3%
same,inhibition of growth at 10 µM,SUD4 [11],2%
same,inhibition of growth at 10 µM,SUD4 [12],3%
same,inhibition of growth at 10 µM,SUD4 [13],7%
Cc1ncc(-c2nc3c(OC4(C)CC4)nc(Nc4cnn(C5CCN(C)CC5)c4)nc3cc2F)cn1,inhibition of growth at 3.3 µM,SUD4 [1],-2%
same,inhibition of growth at 0.33 µM,SUD4 [2],-1%
same,inhibition of growth at 1.7 µM,SUD4 [3],-2%
same,inhibition of growth at 0.17 µM,SUD4 [4],-2%
same,IC50,[14],3 nM
same,IC50,[15],110 nM
same,logD,[16],2.6
same,microsomal CLint,[17],58 µL/min/mg
same,hepatocyte CLint,[18],< 1 µL/min/1e6 cells
same,Papp A→B at 6 h,[19],31 ×10⁻⁶ cm/s
same,solubility,[20],800 µM
same,IC50,[21],1400 nM
same,IC50,[22],> 8000 nM
same,IC50,[23],270 nM
same,IC50,[24],760 nM
same,IC50,[25],270 nM
same,inhibition of growth at 0.33 µM,OCI-Ly10 [26],8%
same,inhibition of growth at 1.7 µM,OCI-Ly10 [27],44%
same,inhibition of growth at 3.3 µM,OCI-Ly10 [28],76%
same,inhibition of growth at 10 µM,OCI-Ly10 [29],148%
same,inhibition of growth at 0.17 µM,OCI-Ly10 [5],24%
same,inhibition of growth at 1.7 µM,OCI-Ly10 [6],93%
same,inhibition of growth at 3.3 µM,OCI-Ly10 [7],194%
same,inhibition of growth at 3.3 µM,SUD4 [8],-1%
same,inhibition of growth at 3.3 µM,SUD4 [9],-3%
same,inhibition of growth at 10 µM,SUD4 [10],2%
same,inhibition of growth at 10 µM,SUD4 [11],-2%
same,inhibition of growth at 10 µM,SUD4 [12],-1%
same,inhibition of growth at 10 µM,SUD4 [13],0%
Cc1ncc(-c2nc3c(NC(C)C)nc(Nc4cnn(C5CC6(C5)CN(C)C6)c4)nc3cc2F)cn1,IC50,[14],2 nM
same,IC50,[15],210 nM
same,logD,[16],1.9
same,microsomal CLint,[17],< 3 µL/min/mg
same,hepatocyte CLint,[18],< 1 µL/min/1e6 cells
same,Papp A→B at 6 h,[19],7.7 ×10⁻⁶ cm/s
same,solubility,[20],> 1000 µM
same,IC50,[21],1200 nM
same,IC50,[22],> 10000 nM
same,IC50,[23],480 nM
same,IC50,[24],930 nM
same,IC50,[25],570 nM
same,inhibition of growth at 0.33 µM,OCI-Ly10 [26],35%
same,inhibition of growth at 1.7 µM,OCI-Ly10 [27],75%
same,inhibition of growth at 3.3 µM,OCI-Ly10 [28],105%
same,inhibition of growth at 10 µM,OCI-Ly10 [29],157%
same,inhibition of growth at 0.17 µM,OCI-Ly10 [5],29%
same,inhibition of growth at 1.7 µM,OCI-Ly10 [6],170%
same,inhibition of growth at 3.3 µM,OCI-Ly10 [7],196%
same,inhibition of growth at 3.3 µM,SUD4 [8],4%
same,inhibition of growth at 3.3 µM,SUD4 [9],4%
same,inhibition of growth at 10 µM,SUD4 [10],7%
same,inhibition of growth at 10 µM,SUD4 [11],6%
same,inhibition of growth at 10 µM,SUD4 [12],7%
same,inhibition of growth at 10 µM,SUD4 [13],10%
